Results on ten compounds are retold here after ChEMBL document CHEMBL5465560, “Selectivity Literature for EUbOPEN Chemogenomic Library” (2024).

The IC50 is the concentration that gives 50% inhibition. A higher IC50 goes with weaker potency in that assay.

Test [1] addresses T1, Serine/threonine-protein kinase 17A (Homo sapiens) (UniProt Q9UEE5).
T1 sequence (whole entry): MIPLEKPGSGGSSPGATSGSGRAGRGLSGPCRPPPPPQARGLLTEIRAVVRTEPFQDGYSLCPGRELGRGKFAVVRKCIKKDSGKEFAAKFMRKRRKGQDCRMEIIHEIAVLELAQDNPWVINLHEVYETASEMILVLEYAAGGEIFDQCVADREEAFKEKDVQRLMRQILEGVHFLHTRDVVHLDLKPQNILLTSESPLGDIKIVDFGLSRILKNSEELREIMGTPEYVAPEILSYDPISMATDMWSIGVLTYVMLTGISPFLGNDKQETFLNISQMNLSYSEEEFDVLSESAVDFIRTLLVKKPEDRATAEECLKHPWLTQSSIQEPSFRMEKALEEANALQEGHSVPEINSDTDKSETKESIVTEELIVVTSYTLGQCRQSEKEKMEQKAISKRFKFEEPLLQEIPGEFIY
Put plainly: Selectivity interaction (Upstate Kinase Profiler service (Millipore)) EUB0000056c STK17A. The note with it: at 1 µM.

In test [2] the target is 5'-AMP-activated protein kinase catalytic subunit alpha-1 (Homo sapiens, UniProt Q13131). The note with it: at 10 µM.
Sequence of 5'-AMP-activated protein kinase catalytic subunit alpha-1 (Q13131 whole entry, looked up): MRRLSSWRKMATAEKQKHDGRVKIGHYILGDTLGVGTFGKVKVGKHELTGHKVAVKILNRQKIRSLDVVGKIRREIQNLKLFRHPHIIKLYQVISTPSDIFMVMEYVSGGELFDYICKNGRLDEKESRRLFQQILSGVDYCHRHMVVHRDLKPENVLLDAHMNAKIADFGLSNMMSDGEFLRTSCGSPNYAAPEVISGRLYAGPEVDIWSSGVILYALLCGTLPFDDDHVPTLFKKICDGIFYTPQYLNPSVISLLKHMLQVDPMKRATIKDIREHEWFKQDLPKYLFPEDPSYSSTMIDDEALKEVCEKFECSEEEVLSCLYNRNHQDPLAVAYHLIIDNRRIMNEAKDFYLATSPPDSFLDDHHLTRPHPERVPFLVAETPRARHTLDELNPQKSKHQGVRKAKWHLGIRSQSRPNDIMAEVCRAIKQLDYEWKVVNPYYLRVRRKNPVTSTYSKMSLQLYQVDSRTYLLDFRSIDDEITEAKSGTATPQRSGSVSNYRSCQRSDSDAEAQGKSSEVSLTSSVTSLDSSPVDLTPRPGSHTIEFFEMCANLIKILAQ
Test [3] deals with Calcium/calmodulin-dependent protein kinase type 1 (Homo sapiens) (UniProt Q14012). Put plainly: Selectivity interaction (Ambit KINOMEscan and KiNATiv profiling in Jurkat cells) EUB0000090b CAMK1. Type of test: cell-based. The note with it: at 1 µM.
Sequence of Calcium/calmodulin-dependent protein kinase type 1 (Homo sapiens) (Q14012 whole entry, looked up): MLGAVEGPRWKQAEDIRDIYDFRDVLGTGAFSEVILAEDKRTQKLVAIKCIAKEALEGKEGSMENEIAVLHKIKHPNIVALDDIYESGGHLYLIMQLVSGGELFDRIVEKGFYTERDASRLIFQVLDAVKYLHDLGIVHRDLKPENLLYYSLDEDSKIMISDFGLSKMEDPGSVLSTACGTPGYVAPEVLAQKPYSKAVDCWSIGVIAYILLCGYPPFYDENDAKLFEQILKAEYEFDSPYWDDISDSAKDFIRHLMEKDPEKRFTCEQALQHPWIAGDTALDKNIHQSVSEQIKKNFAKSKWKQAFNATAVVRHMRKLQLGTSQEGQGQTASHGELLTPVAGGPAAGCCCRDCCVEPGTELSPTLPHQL
In test [4] the target is SRSF protein kinase 1 (Homo sapiens, UniProt Q96SB4). The note with it: at 10 µM.
Sequence of SRSF protein kinase 1 (Q96SB4 whole entry): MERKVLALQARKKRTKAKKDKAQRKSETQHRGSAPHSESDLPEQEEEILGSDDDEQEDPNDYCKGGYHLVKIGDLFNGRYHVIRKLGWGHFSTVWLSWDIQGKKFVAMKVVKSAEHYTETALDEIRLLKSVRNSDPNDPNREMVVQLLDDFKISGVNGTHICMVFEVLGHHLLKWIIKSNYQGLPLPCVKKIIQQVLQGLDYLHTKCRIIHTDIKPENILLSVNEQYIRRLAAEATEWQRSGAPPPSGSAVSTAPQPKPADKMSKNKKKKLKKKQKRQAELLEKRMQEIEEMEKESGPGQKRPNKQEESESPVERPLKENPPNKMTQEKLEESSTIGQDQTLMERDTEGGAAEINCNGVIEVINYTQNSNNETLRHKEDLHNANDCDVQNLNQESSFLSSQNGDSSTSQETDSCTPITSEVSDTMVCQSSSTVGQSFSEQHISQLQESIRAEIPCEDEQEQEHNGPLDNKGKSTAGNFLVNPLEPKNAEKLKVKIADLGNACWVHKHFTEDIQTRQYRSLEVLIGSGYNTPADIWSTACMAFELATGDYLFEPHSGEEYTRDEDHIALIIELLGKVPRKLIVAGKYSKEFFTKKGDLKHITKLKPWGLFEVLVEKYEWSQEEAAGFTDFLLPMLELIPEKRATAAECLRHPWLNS
The target in test [5] is Serine/threonine-protein kinase PLK3 (Homo sapiens, UniProt Q9H4B4). The note with it: at 10 µM.
Sequence of Serine/threonine-protein kinase PLK3 (Q9H4B4 whole entry, looked up): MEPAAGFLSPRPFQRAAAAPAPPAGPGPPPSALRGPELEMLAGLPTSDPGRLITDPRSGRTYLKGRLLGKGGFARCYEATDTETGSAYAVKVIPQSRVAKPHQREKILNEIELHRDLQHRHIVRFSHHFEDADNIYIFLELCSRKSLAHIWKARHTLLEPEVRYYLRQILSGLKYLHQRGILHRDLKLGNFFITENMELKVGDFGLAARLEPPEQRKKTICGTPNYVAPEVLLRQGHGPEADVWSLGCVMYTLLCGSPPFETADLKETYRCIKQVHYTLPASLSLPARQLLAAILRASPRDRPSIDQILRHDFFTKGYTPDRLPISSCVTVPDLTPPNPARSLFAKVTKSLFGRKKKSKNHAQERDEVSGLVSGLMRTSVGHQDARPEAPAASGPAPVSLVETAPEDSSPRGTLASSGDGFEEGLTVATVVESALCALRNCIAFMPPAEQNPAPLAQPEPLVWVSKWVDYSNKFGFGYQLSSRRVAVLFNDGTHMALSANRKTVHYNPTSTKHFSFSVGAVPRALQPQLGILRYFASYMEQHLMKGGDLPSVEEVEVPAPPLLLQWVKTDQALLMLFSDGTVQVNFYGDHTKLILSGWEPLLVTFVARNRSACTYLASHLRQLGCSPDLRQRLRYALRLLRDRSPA
In test [6] the target is Protein arginine N-methyltransferase 3 (Homo sapiens, UniProt O60678). Put plainly: Selectivity interaction (Scintillation proximity assays) EUB0000255b PRMT3. Background: Scintillation proximity formats need no separation of bound from free tracer.
Sequence of Protein arginine N-methyltransferase 3 (O60678 whole entry): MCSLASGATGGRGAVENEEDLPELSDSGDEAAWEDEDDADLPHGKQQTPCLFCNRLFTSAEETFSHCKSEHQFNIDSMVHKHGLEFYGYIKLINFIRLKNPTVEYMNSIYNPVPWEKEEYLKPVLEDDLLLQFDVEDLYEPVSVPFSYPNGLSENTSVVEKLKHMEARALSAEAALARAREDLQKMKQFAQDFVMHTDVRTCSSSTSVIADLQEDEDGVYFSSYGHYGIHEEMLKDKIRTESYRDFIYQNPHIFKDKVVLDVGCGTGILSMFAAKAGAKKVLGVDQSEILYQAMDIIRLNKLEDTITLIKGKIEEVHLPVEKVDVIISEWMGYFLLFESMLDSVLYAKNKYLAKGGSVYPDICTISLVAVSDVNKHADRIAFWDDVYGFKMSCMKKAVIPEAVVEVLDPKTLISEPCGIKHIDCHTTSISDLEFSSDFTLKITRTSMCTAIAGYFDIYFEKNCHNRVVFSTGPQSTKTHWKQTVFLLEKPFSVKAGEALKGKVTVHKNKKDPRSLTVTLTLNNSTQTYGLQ
Test [7] has as its target T2, Alpha-2A adrenergic receptor (Homo sapiens) (UniProt P08913).
T2 sequence (whole entry): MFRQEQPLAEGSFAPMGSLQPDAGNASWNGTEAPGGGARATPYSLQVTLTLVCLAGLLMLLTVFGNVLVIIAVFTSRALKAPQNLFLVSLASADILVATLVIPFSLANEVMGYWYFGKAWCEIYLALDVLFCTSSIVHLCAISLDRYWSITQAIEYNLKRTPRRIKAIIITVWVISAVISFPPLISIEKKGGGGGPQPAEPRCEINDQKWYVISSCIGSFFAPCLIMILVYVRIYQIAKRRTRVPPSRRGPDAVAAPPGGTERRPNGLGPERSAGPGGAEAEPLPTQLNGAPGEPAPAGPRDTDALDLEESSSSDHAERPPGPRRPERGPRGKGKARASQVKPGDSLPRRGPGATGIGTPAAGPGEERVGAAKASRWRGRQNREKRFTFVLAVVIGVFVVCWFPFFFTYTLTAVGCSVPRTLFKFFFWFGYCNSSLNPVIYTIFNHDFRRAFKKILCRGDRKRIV
The test is described as follows: Selectivity interaction (Panel of non-epigenetic targets (kinases, GPCRs, ion channels, and transporters, Eurofins) ) EUB0000271b ADRA2A. The note with it: at 1 µM.

For test [8], the target named is T3, Ephrin type-B receptor 2 (Homo sapiens) (UniProt P29323).
T3 sequence (whole entry): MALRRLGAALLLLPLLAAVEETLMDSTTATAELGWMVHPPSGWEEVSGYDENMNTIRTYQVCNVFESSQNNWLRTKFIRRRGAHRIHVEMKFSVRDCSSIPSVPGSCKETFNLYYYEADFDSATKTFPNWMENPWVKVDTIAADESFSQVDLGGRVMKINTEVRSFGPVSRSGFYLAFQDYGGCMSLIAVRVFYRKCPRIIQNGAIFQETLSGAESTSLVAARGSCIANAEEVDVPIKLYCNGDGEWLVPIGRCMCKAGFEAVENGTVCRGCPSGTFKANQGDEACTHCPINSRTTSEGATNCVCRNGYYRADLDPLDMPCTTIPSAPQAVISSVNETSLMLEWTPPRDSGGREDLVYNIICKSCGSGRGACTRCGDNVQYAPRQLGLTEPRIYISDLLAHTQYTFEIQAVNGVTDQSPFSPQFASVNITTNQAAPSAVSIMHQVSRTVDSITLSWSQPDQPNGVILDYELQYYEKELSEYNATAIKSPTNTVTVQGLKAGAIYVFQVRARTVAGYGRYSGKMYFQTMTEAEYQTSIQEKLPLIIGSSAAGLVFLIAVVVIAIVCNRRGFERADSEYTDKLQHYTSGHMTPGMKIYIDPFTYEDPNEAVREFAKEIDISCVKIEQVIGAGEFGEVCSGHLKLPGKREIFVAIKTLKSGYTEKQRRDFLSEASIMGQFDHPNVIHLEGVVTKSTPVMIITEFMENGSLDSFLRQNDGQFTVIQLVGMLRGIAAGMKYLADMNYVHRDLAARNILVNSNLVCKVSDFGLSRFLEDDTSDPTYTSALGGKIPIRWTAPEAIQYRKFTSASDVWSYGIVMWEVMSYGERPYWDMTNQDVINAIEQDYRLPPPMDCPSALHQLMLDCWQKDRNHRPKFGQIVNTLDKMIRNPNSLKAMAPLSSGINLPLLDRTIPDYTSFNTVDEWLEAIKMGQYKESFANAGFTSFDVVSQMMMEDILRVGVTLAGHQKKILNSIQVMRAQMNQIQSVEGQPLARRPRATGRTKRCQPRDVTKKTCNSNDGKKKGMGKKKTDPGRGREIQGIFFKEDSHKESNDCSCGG
The test is described as follows: Selectivity interaction (KinomeScan (DiscoverX)) EUB0000045b EPHB2.

Test [9] deals with Dual specificity tyrosine-phosphorylation-regulated kinase 1B (Homo sapiens, UniProt Q9Y463). Put plainly: Selectivity interaction (KinomeScan (DiscoverX)) EUB0000666a DYRK1B. The note with it: at 10 µM.
Sequence of Dual specificity tyrosine-phosphorylation-regulated kinase 1B (Q9Y463 whole entry, looked up): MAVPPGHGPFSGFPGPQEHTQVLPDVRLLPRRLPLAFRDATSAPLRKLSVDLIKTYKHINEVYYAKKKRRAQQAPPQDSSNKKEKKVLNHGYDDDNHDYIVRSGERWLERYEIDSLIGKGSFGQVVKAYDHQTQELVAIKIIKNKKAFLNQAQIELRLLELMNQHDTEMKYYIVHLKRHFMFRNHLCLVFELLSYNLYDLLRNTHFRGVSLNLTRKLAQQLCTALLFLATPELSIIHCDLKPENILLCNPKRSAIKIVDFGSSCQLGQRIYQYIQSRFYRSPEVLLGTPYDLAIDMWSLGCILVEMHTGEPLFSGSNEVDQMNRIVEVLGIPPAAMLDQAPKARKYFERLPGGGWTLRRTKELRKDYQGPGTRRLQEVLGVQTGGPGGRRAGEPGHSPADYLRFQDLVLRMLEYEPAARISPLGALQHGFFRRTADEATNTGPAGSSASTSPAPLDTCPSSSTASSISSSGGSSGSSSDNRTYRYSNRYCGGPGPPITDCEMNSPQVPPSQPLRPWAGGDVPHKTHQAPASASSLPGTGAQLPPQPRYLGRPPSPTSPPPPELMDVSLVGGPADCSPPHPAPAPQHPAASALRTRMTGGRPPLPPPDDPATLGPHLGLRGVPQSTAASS
Test [10] addresses Casein kinase II subunit alpha (Homo sapiens, UniProt P68400). The test is described as follows: Selectivity interaction (SelectScreen profiling (Invitrogen)) EUB0000607a CSNK2A1. The note with it: at 2 µM.
For test [11], the target named is Vascular endothelial growth factor receptor 3 (Homo sapiens, UniProt P35916). Put plainly: Selectivity interaction (KinomeScan (DiscoverX)) EUB0000229b FLT4. The note with it: at 10 µM.

Sequence of Casein kinase II subunit alpha (P68400 whole entry, looked up): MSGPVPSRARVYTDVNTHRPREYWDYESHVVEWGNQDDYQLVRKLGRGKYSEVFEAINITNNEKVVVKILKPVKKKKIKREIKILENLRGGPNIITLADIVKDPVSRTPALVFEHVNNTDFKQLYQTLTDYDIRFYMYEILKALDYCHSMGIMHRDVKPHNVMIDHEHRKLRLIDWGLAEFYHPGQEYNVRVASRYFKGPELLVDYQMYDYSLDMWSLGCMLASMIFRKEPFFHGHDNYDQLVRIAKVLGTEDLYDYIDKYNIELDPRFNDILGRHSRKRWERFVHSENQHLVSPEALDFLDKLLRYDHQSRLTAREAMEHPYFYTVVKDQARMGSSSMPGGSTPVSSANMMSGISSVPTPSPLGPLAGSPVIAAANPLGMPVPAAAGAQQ

Take `Cc1ccc(-c2ccc3c(ccc4sc5c(c43)NC[C@@H](C)NC5=O)n2)cn1`: in test [1], the % of inhibition stood at 88%.
Compound `Cc1cc([C@@H](C)Nc2ccccc2C(=O)O)c2nc(N3CCOCC3)cc(=O)n2c1` [AZD-6482] showed a % of control in test [2] of 100%.
As to `CN(C)C/C=C/C(=O)Nc1ccc(C(=O)N2CCCC(Nc3ncc(Cl)c(-c4c[nH]c5ccccc45)n3)C2)cc1` (configuration not stated), in [3], the % of control is 93%.
As for `CCN(CC)CCCCNc1ncc2cc(-c3cc(OC)cc(OC)c3)c(NC(=O)NC(C)(C)C)nc2n1`, the % of control in test [4] and in [5] was 100% each time.
In turn, `COCCN1CCC(c2cc(CN(C)C(=O)c3cccc(Oc4ccccc4)c3)ccn2)CC1` had an IC50 in test [6] above 10 µM.
For the compound `Cc1cc(C)cc([C@@H]2c3cc(C)ccc3NC(=O)CN2C(=O)c2ccc(Br)s2)c1`, the % of inhibition in test [7] is -8%.
In the case of `C=CC(=O)Nc1cc(-n2c(=O)ccc3cnc4ccc(-c5ccc(NS(C)(=O)=O)cc5)cc4c32)ccc1C`, the % of control came out at 80% in test [8] (at 1 µM) and 95% in test [8] (at 10 µM).
In turn, `O=C(NOC[C@H](O)CO)c1ccc(F)c(F)c1Nc1ccc(I)cc1F` showed a % of control in [9] of 98%.
Take `CNC(=O)Nc1ccc(-c2nc(N3CC4CCC(C3)O4)c3cnn(C4CCC5(CC4)OCCO5)c3n2)cc1`: the % of inhibition in test [10] stood at 0%.
Compound `COc1cc(N(C)c2ccnc3ccc(C(F)(F)F)cc23)cc(OC)c1OC` returned a % binding in test [11] of 96%.
